The results in this text go back to publication PMC12615753, “Glutathione as a taste modulator: molecular mechanisms of interaction with umami and sweet taste receptors” (Food Chemistry: Molecular Sciences, 2025).

Structures are written as SMILES.

For the test, the target named is T1, hTAS1R1 Y220A/rTAS1R3 (UniProt Q7RTX1+Q923K1, Y220A).
T1 construct: UniProtKB number Q7RTX1–1); The cDNA coding region of rTAS1R3 was synthesized with optimized-codon usage for human expression; expressed in transfected cells; host or cells: HEK293T/17
T1 sequence (Q7RTX1 21-841 Y220A): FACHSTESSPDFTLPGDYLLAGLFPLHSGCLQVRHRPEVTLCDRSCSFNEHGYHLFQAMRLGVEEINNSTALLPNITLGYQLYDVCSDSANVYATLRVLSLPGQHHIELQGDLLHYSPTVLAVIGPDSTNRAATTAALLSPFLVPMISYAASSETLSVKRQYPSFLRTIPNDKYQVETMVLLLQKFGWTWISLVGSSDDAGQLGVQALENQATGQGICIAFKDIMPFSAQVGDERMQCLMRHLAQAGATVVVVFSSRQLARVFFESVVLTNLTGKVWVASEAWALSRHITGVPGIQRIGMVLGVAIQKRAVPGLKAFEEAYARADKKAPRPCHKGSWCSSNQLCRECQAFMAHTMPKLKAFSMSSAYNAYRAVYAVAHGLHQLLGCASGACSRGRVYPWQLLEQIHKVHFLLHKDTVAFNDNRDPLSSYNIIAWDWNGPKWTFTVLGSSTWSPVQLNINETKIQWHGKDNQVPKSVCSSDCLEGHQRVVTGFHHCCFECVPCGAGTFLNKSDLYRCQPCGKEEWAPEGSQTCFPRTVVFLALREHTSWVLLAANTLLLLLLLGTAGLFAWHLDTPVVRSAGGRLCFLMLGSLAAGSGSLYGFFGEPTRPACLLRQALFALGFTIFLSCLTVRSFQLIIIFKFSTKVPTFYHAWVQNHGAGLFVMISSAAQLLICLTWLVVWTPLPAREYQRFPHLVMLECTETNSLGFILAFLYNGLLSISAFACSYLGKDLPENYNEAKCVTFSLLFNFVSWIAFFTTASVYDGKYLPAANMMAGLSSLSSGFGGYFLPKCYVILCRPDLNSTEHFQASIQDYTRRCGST
T1 sequence (Q923K1 21-858): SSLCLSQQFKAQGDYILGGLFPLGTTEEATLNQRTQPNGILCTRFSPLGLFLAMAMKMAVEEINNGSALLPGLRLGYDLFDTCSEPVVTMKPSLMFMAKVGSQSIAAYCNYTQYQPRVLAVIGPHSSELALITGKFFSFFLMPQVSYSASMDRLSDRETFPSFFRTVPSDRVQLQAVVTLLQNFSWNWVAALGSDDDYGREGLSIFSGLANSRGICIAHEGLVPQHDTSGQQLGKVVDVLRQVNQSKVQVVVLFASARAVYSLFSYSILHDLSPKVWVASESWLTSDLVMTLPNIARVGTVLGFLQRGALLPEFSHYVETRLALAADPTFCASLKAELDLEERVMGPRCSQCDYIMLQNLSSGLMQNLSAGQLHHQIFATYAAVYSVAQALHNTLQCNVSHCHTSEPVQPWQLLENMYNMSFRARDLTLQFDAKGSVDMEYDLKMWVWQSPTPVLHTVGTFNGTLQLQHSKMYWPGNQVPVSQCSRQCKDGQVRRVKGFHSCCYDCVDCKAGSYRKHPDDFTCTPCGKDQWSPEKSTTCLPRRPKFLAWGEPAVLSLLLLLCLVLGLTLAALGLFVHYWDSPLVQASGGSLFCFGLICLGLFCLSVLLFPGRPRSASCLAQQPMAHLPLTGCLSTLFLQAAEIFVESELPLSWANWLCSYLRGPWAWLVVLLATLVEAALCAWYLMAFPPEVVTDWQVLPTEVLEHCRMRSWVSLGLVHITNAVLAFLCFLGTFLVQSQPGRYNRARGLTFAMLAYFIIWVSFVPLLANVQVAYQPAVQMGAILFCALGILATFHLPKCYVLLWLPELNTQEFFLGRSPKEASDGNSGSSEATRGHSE
Kind of test: Calcium assay, hTAS1R1 mutant co-expressed with rTAS1R3. It is filed as cell-based, human, rat. Conditions: for response to the agonist alone, vs WT: Y220A.

As for `N[C@@H](CCC(=O)N[C@@H](CS)C(=O)NCC(=O)O)C(=O)O` [GSH, γ-L-glutamyl-L-cysteinyl-glycine], the EC50 (in general, the midpoint of the concentration-response curve) was over 30 mM and the “response to the agonist alone, vs WT” value is recorded as “fully abolished”.
As for `N[C@@H](CCC(=O)O)C(=O)O` [L-Glu, L-glutamic acid, reference compound], the “response to the agonist alone, vs WT” value is “completely suppressed”.
The same measure, in the same setting: the entry for `CCCC(CCC)NC(=O)c1ccc2c(c1)OCO2` [S807, N-(heptan-4-yl)benzo[d][1,3]dioxole-5-carboxamide, reference compound] is “strongly affected”.
